{
  "source": "patent US10286084B2",
  "about": "“Compositions for the inactivation of virus replication and methods of making and using the same” (priority 2014, dated 2019)",
  "molecules": {"B1": {"name": "U6 promoter: U6 pol III promoter, ~254 bp, SEQ ID NO: 51, driving sgRNA transcription (nucleic acid)", "DNA": "TCTAGAGAGGGCCTATTTCCCATGATTCCTTCATATTTGCATATACGATACAAGGCTGTTAGAGAGATAATTGGAATTAATTTGACTGTAAACACAAAGATATTAGTACAAAATACGTGACGTAGAAAGTAATAATTTCTTGGGTAGTTTGCAGTTTTAAAATTATGTTTTAAAATGGACTATCATATGCTTACCGTAACTTGAAAGTATTTCGATTTCTTGGCTTTATATATCTTGTGGAAAGGACGAAACACC", "modifications": "Synthetic U6 Promoter"}, "B2": {"name": "tRNAGLU: human tRNA promoter, SEQ ID NO: 46, fused to sgRNA (nucleic acid)", "DNA": "TCCCTGGTGGTCTAGTGGTTAGGATTCGGCGCTCTCACCGCCGCGGCCCGGGTTCGATTCCCGGTCAGGGAA", "modifications": "expressed or natural sequence"}, "B3": {"name": "tRNAMHV-7: MHV68 tRNA promoter (SEQ ID NO: 50) fused to sgRNA (nucleic acid)", "DNA": "GCCAGGGTAGCTCAATTGGTAGAGCATCAGGCTAGTATCCTGTCGGTTCCGGTTCAAGTCCGGGCCCTGGTT", "modifications": "expressed or natural sequence"}, "B4": {"name": "tRNATYR: human tRNA promoter, SEQ ID NO: 49, fused to sgRNA (nucleic acid)", "DNA": "GTCAGTGTTGCACAACGGTTAAGTGAAGAGGCTGTAAACCCAGACTGGATGGGTTCAATTCCCATCTCTGCCG", "modifications": "expressed or natural sequence"}, "B5": {"name": "tRNAHIS: human histidine tRNA promoter (SEQ ID NO: 44) fused to sgRNA (nucleic acid)", "DNA": "GCCGTGATCGTATAGTGGTTAGTACTCTGCGTTGTGGCCGCAGCAACCTCGGTTCGAATCCGAGTCACGGCA", "modifications": "expressed or natural sequence"}, "B6": {"name": "tRNAGLN: human glutamine tRNA promoter (SEQ ID NO: 41) fused to sgRNA (nucleic acid)", "DNA": "GGTTCCATGGTGTAATGGTTAGCACTCTGGACTCTGAATCCAGCGATCCGAGTTCAAATCTCGGTGGAACCT", "modifications": "expressed or natural sequence"}, "B7": {"name": "tRNAGLN2: human tRNA promoter, SEQ ID NO: 45, fused to sgRNA (nucleic acid)", "DNA": "B6 DNA", "modifications": "expressed or natural sequence"}, "B8": {"name": "tRNACYS: human tRNA promoter, SEQ ID NO: 48, fused to sgRNA (nucleic acid)", "DNA": "GGGGGTATAGCTCAGGGGTAGAGCATTTGACTGCAGATCAAGAGGTCCCCAGTTCAAATCTGGGTGCCCCCT", "modifications": "expressed or natural sequence"}},
  "type_in_all_cases": "cell-based",
  "key": {"HBV": {"test_system": "HBV", "assay": "HBV DNA release into supernatant of transduced HBV2.2.15 cells, with or without antivirals", "conditions": "compound 1 μM, relative to untreated N.S. sgRNA cells, average ± SD; for inhibition at 1 µM: Hepatitis B virus", "method": "HepAD38 or HBV2.2.15 cells were transduced with lentiviral vectors expressing a puromycin resistance gene as well as Spy Cas9 and an sgRNA, as described above, at 85-90% confluency after growth in medium lacking Tet for 48 h, to ensure expression of HBV mRNAs and DNA. Beginning at 48 h post-transduction, cells were selected in 4 μg/ml puromycin (Life Technologies) for 10 days to eliminate any non-transduced cells. Supernatant media and cells were then harvested for ELISA and real-time PCR assays. Control cells including non-transduced HepAD38 cells were included as positive controls for HBV replication (in medium lacking Tet) or virtual absence of HBV replication (in medium containing Tet). Non-transduced HBV 2.2.15 cells were included as a control in experiments where relevant.\nOn day 7, total DNA was purified from supernatant using a commercially available kit (DNeasy Blood & Tissue kit, Qiagen). The HBV DNA was amplified in a real-time PCR assay using the AB 7900HT sequence detection system (Applied Biosystems) or the LightCycler 480 (Roche) as described by Stuyver et al. (2002). All samples were tested in duplicate. The concentration of compound that inhibited HBV DNA replication by 50% (EC50) or 90% (EC90) was determined by linear regression. HBV log viral reduction was also determined.\nAfter transduction with Cas9/sgRNA expressing lentiviral constructs and selection, we observed that extracellular levels of HBV DNA were suppressed by ˜98%, ˜80%, and ˜90%, respectively, by the RT, surface Ag, and core specific Cas9/sgRNA combinations (Table 1)."}, "[1]": {"test_system": "HPV-18 E6 or E7 gene target", "assay": "FLuc indicator assay in 293T cells, Spy Cas9 sgRNAs expressed from U6 or tRNA promoters", "conditions": "Spy Cas9, 72 h, promoter driving the sgRNA varied", "from_the_text": "(§1) Human tRNA sequences were obtained from the Genomic tRNA database and the MHV tRNA-7 sequence was obtained from Bogerd et al. 2010. (Mol. Cell 37, p135-142, 2010). To generate a tRNA-sgRNA expression construct, overlapping oligonucleotides were assembled to create a tRNA fused to an sgRNA scaffold and a pol III termination signal. Between the tRNA and the sgRNA scaffold, two BsmBI or BbsI sites were incorporated to allow for the insertion of variable targeting sequences. tRNA-sgRNA cassettes were then cloned into Cas9 expression vectors pCMVSau (discussed more fully below), pCMVNme, or pX330 (Addgene, plasmid #42230) expressing S. aureus, N. meningitidis, or S. pyogenes Cas9, respectively. In the case of pX330 the U6 promoter was exchanged for the tRNA-sgRNA cassette.\n(§2) Reporter assays with 293T cells were performed by using the calcium phosphate transfection method. Briefly, 293T cells were plated at ˜1.25×10^5 cells per well in 12-well plates and transfected with a 4:1 ratio of the RGN expression plasmid to the FLuc-based indicator plasmid as well as 10 ng of a RLuc plasmid. Transfected 293T cells were then harvested 72 hours post transfection in Passive Lysis Buffer (Promega) and assayed for both FLuc and RLuc activity (Promega Dual-Luciferase Reporter Assay System) with RLuc serving as an internal control and normalization factor.\nInitially we generated predicted fusion transcripts consisting of a human glutamine tRNA (SEQ ID NO: 41), a human histidine tRNA (SEQ ID NO: 44) or an MHV68 tRNA (M1-7; SEQ ID NO: 50)) linked to Spy Cas9 sgRNAs specific for a target DNA sequence derived either from the human papillomavirus serotype 18 (HPV-18) E6 or E7 gene (SEQ ID NO: 8 and 10, respectively), as described above. Indicator plasmids consisting of these viral target sequences linked to the FLuc gene, constructed as described above, were then co-transfected into 293T cells along with a plasmid encoding Spy Cas9, plasmids encoding each of the tRNA promoters, or the U6 promoter, linked to the same sgRNA and finally a RLuc-based internal control plasmid. Cells were harvested at 72 h post-transfection and FLuc and RLuc levels determined."}, "HSV-1 ICP0 gene": {"test_system": "HSV-1 ICP0 gene", "assay": "FLuc indicator assay in 293T cells, Sau Cas9 sgRNA expressed from various tRNAs", "conditions": "Sau Cas9, identical HSV-1 ICP0 sgRNA (SEQ ID NO: 16), tRNA promoter varied", "from_the_text": "as §1, §2\nAs such Sau encodes a promising Cas9 gene for potential use in AAV vectors. To analyze whether we could also produce active Sau sgRNAs using tRNA promoters, we expressed the identical Sau sgRNA, specific for a target within the HSV-1 ICP0 gene (SEQ ID NO: 16), using a wide range of human tRNAs. […] The reason for the lower efficiency of processing seen with all of these tRNA:sgRNA fusions is currently unclear, but could relate to the single invariant sgRNA sequence used in this experiment."}, "[2]": {"conditions": "HBV2.2.15 cells expressing Cas9 and HBV RT sgRNA, read-out: Percent inhibition of HBV DNA release into the supernatant medium, HBV RT sgRNA"}, "[3]": {"conditions": "HBV2.2.15 cells expressing Cas9 and HBV core sgRNA, read-out: Percent inhibition of HBV DNA release into the supernatant medium, HBV core sgRNA"}, "[4]": {"conditions": "HBV2.2.15 cells expressing Cas9 and HBV surface sgRNA, read-out: Percent inhibition of HBV DNA release into the supernatant medium, HBV surface sgRNA"}, "[5]": {"conditions": "HBV2.2.15 cells expressing Cas9 and N.S. sgRNA, triplicate, read-out: Percent inhibition of HBV DNA release into the supernatant medium, N.S. sgRNA"}},
  "note": "Where a name gives a salt, the structure may show the parent alone. Read-outs that look alike come from different tables or passages of the source.",
  "data": [
    {"molecule": "Nc1ccn([C@@H]2CS[C@H](CO)O2)c(=O)n1", "note": "[3TC, lamivudine]", "values": [
      {"measurement": "inhibition at 1 µM", "setting": "HBV; [2]", "result": "99.1 ± 0.03", "unit": "%"},
      {"measurement": "inhibition at 1 µM", "setting": "HBV; [3]", "result": "97.1 ± 0.5", "unit": "%"},
      {"measurement": "inhibition at 1 µM", "setting": "HBV; [4]", "result": "96.3 ± 0.1", "unit": "%"},
      {"measurement": "inhibition at 1 µM", "setting": "HBV; [5]", "result": "61.4 ± 6.2", "unit": "%"}
    ]},
    {"molecule": "C=C1[C@H](CO)[C@@H](O)C[C@@H]1n1cnc2c(=O)[nH]c(N)nc21", "note": "[ETV, entecavir]", "values": [
      {"measurement": "inhibition at 1 µM", "setting": "HBV; [2]", "result": "98.5 ± 1", "unit": "%"},
      {"measurement": "inhibition at 1 µM", "setting": "HBV; [3]", "result": "97.9 ± 0.6", "unit": "%"},
      {"measurement": "inhibition at 1 µM", "setting": "HBV; [4]", "result": "97.6 ± 1.1", "unit": "%"},
      {"measurement": "inhibition at 1 µM", "setting": "HBV; [5]", "result": "78.3 ± 7.9", "unit": "%"}
    ]},
    {"molecule": "COC(=O)C1=C(CN2CCOCC2)NC(c2ccccn2)=NC1c1ccc(F)cc1Cl", "note": "(stereo not shown) [HAP12, heteroaryldihydropyrimidine]", "values": [
      {"measurement": "Percent inhibition of HBV DNA release into the supernatant medium, HBV RT sgRNA", "setting": "HBV; HBV2.2.15 cells expressing Cas9 and HBV RT sgRNA", "result": "97.5 ± 0.7", "unit": "%"},
      {"measurement": "Percent inhibition of HBV DNA release into the supernatant medium, HBV core sgRNA", "setting": "HBV; HBV2.2.15 cells expressing Cas9 and HBV core sgRNA", "result": "97.6 ± 0.1", "unit": "%"},
      {"measurement": "Percent inhibition of HBV DNA release into the supernatant medium, HBV surface sgRNA", "setting": "HBV; HBV2.2.15 cells expressing Cas9 and HBV surface sgRNA", "result": "98.0 ± 0.3", "unit": "%"},
      {"measurement": "Percent inhibition of HBV DNA release into the supernatant medium, N.S. sgRNA", "setting": "HBV; HBV2.2.15 cells expressing Cas9 and N.S. sgRNA, triplicate", "result": "77.5 ± 5.2", "unit": "%"}
    ]},
    {"molecule": "CC(C)OC(=O)OCOP(=O)(CO[C@H](C)Cn1cnc2c(N)ncnc21)OCOC(=O)OC(C)C", "note": "[TDF, tenofovir disoproxil fumarate]", "values": [
      {"measurement": "inhibition at 1 µM", "setting": "HBV; [2]", "result": "98.9 ± 0.2", "unit": "%"},
      {"measurement": "inhibition at 1 µM", "setting": "HBV; [3]", "result": "97 ± 0.3", "unit": "%"},
      {"measurement": "inhibition at 1 µM", "setting": "HBV; [4]", "result": "95.9 ± 0.7", "unit": "%"},
      {"measurement": "inhibition at 1 µM", "setting": "HBV; [5]", "result": "68.1 ± 1.5", "unit": "%"}
    ]},
    {"molecule": "B1", "values": [
      {"measurement": "knockdown of E6- and E7-based FLuc indicator constructs", "setting": "[1]", "result": "effective and comparable knockdown"}
    ]},
    {"molecule": "B2", "values": [
      {"measurement": "knockdown of FLuc indicator", "setting": "HSV-1 ICP0 gene", "result": "strong knockdown"}
    ]},
    {"molecule": "B3", "values": [
      {"measurement": "knockdown of E6- and E7-based FLuc indicator constructs", "setting": "[1]", "result": "effective and comparable knockdown"}
    ]},
    {"molecule": "B4", "values": [
      {"measurement": "knockdown of FLuc indicator", "setting": "HSV-1 ICP0 gene", "result": "little or no detectable knockdown"}
    ]},
    {"molecule": "B5", "values": [
      {"measurement": "knockdown of E6- and E7-based FLuc indicator constructs", "setting": "[1]", "result": "slightly less effective"}
    ]},
    {"molecule": "B6", "values": [
      {"measurement": "knockdown of E6- and E7-based FLuc indicator constructs", "setting": "[1]", "result": "effective and comparable knockdown"},
      {"measurement": "knockdown of FLuc indicator", "setting": "HSV-1 ICP0 gene", "result": "strong knockdown"}
    ]},
    {"molecule": "B7", "values": [
      {"measurement": "knockdown of FLuc indicator", "setting": "HSV-1 ICP0 gene", "result": "strong knockdown"}
    ]},
    {"molecule": "B8", "values": [
      {"measurement": "knockdown of FLuc indicator", "setting": "HSV-1 ICP0 gene", "result": "readily detectable knockdown"}
    ]}
  ]
}
